Data on seven compounds can be found in ChEMBL document CHEMBL1128143, “The synthesis of 5-substituted camptothecins as potential inhibitors of DNA topoisomerase I” (1995).

Common to all, as to assay type: functional
The test system of one assay is KB. Briefly: Inhibitory activity against protein linked DNA breaks in KB cells at 25 ug/mL after 1 hour. As to conditions: Homo sapiens.
The next assay has as its system A549. Briefly: Inhibitory activity against A549 cell line; inactive. As to conditions: Homo sapiens, read-out: ID50 (the source's name).
The subject of the next assay is BT-549. In words: Inhibitory activity against BT549 cell line; inactive. As to conditions: Homo sapiens, read-out: ID50 (the source's name).
Another assay deals with PLC. In words: Inhibitory activity against PLC cell line; inactive. As to conditions: Homo sapiens, read-out: ID50 (the source's name).
For a further assay, the system named is SW480. In words: Inhibitory activity against SW480 cell line; inactive. As to conditions: Homo sapiens, read-out: ID50 (the source's name).

Take `CC[C@@]1(O)C(=O)OCc2c1cc1n(c2=O)Cc2c-1nc1ccccc1c2C=O`: the inhibition at 25 µg/mL in the assay with KB was determined as 107%.

Take `CC[C@@]1(O)C(=O)OCc2c1cc1n(c2=O)Cc2c-1nc1ccccc1c2CO`: the inhibition at 25 µg/mL in the assay on KB turned out to be 97.6%.

Take `CC[C@@]1(O)C(=O)OCc2c1cc1n(c2=O)[C@H](C(=O)c2cc(OC)c(OC)c(OC)c2)c2cc3ccccc3nc2-1`: the IC50 in the assay with A549, in the assay with BT-549, with PLC and in the assay with SW480 was more than 5 µM each time. For the same compound, the inhibition at 25 µg/mL in the assay on KB came out at 0%.

Regarding `CC[C@@]1(O)C(=O)OCc2c1cc1n(c2=O)C(CO)(CO)c2cc3ccccc3nc2-1`, the IC50 with A549, in the assay on BT-549, in the assay on PLC and in the assay with SW480 was more than 5 µM in each case. Also, the inhibition at 25 µg/mL in the assay on KB worked out at 0%.

Take `CC[C@@]1(O)C(=O)OCc2c1cc1n(c2=O)[C@@H](CO)c2cc3ccccc3nc2-1`: the IC50 with A549, with BT-549, in the assay on PLC and in the assay with SW480 was more than 5 µM in each case. In the assay with KB, the inhibition at 25 µg/mL is 8.7%.

Consider `CC[C@@]1(O)C(=O)OCc2c1cc1n(c2=O)[C@H](CO)c2cc3ccccc3nc2-1`, for which the IC50 in the assay on A549, in the assay with BT-549, with PLC and with SW480 was more than 5 µM throughout. The inhibition at 25 µg/mL with KB turned out to be 20.4%.

Turning to `CC[C@@]1(O)C(=O)OCc2c1cc1n(c2=O)Cc2cc3ccccc3nc2-1` [CAMPTOTHECIN], the inhibition at 25 µg/mL in the assay with KB is 100%.
